Data as given in patent US9156801B2, “2-substituted oleanolic acid derivative, method preparing for same, and application thereof” (HANGZHOU BENSHENG PHARMACEUTICAL CO., LTD., priority 2011, dated 2015).
In brackets after ≈: the same amount, converted by molar mass.

What was measured:
NB4 cell line = test: leukemia cell growth inhibition, MTT; format: cell-based; settings: Homo sapiens, NB-4; for inhibition at 16 µg/mL: NB4, 16 μg/mL compound, 72 h, read-out: IR (cell proliferation inhibition rate); for IC50: NB4, 72 h
From the text: (§1) Leukemia cell lines: leukemia cell lines: K562/adr (drug-resistant, chronic myeloid leukemia, CML), NB4 (acute promyelocytic leukemia, AML), Kasumi-1 (acute myeloid leukemia M2 type, AML-M2), Jurkat (acute lymphoblastic leukemia, ALL), all of which are donated by Cancer Research Institute of Zhejiang University, China; and H9 (acute lymphoblastic leukemia, ALL), which is purchased from China Center for Type Culture Collection (CCTCC).
(§2) Obtaining 6000 well-growing leukemia cells and inoculating them into wells of a 96-well cell culture plate. The culture medium is the 1640 cell culture medium containing 10% fetal bovine serum. After adding the 2-substituted oleanolic acid derivatives of different concentrations and mixing uniformly, placing the plate in a carbon dioxide cell incubator (5% CO2) at 37° C. and incubated for 72 hours. Then the relative number of viable cells is determined by MTT method. In this experiment, cell proliferation inhibition rate in control group (not treated with any compound) is set as 0%.

Jurkat cell line = test: leukemia cell growth inhibition, MTT; format: cell-based; settings: Homo sapiens, 72 h; for inhibition at 16 µg/mL: 16 μg/mL compound, read-out: IR (cell proliferation inhibition rate)
From the text: as §1, §2

K562/adr cell line = test: leukemia cell growth inhibition, MTT; format: cell-based; settings: Homo sapiens, 72 h; for IC50: K562/Adr; for inhibition at 16 µg/mL: K562/adr, 16 μg/mL compound, read-out: IR (cell proliferation inhibition rate)
From the text: as §1, §2

Kasumi-1 cell line = test: leukemia cell growth inhibition, MTT; format: cell-based; settings: Homo sapiens; for inhibition at 16 µg/mL: Kasumi-1, 16 μg/mL compound, 72 h, read-out: IR (cell proliferation inhibition rate); for IC50: Kasumi-1, 72 h
From the text: as §1, §2

H9 cell line = test: leukemia cell growth inhibition, MTT; format: cell-based; settings: Homo sapiens; for IC50: H9, 72 h; for inhibition at 16 µg/mL: H9, 16 μg/mL compound, 72 h, read-out: IR (cell proliferation inhibition rate)
From the text: as §1, §2

RPMI8226 cell line = test: multiple myeloma cell growth inhibition, MTT; format: cell-based; settings: Homo sapiens, RPMI-8226; for inhibition at 16 µg/mL: RPMI8226, 16 μg/mL compound, 72 h, read-out: IR (cell proliferation inhibition rate); for IC50: RPMI8226, 72 h
Method: Multiple myeloma cell lines: RPMI8226 (multiple myeloma), purchased from Fuxiang Bio-tech Co. Ltd., Shanghai, China.
Obtaining 6000 well-growing cells as above and inoculating them into wells of a 96-well cell culture plate. The culture medium is the 1640 cell culture medium containing 10% fetal bovine serum. After adding the 2-substituted oleanolic acid derivatives of different concentrations and mixing uniformly, placing the plate in a carbon dioxide cell incubator (5% CO2) at 37° C. and incubated for 72 hours. Then the relative number of viable cells is determined by MTT method. In this experiment, cell proliferation inhibition rate in control group (not treated with any compound) is set as 0%.

Hep G2 cell line = test: solid tumor cell growth inhibition, MTT; format: cell-based, human; settings: Homo sapiens; for inhibition at 16 µg/mL: HepG2, 72 h, Hep G2, 16 μg/mL compound, 72 h, read-out: IR (cell proliferation inhibition rate); for IC50: HepG2, Hep G2, 72 h
Method: (§3) Hep-2 (laryngeal carcinoma), A549 (human lung cancer), CaES-17 (esophageal cancer cell), PC-3 (prostate cancer), CNE (nasopharyngeal carcinoma cell), and SK-OV-3 (ovarian cancer cell), all of which are purchased from China Center For Type Culture Collection; RKO (human colon adenocarcinoma cell), MGC 803 (human gastric cancer cell), MG63 (osteosarcoma) and U87 MG (malignant glioma cell), all of which are purchased from Fuxiang Bio-tech Co. Ltd., Shanghai, China; PANC-1 (pancreatic cancer), Hep G2 (human liver cancer cell), Becap37 (human breast cancer cell), and Hela (human cervical cancer cell), all of which are donated by Cancer Research Institute of Zhejiang University, China.
(§4) Obtaining 4000 well-growing human solid tumor cells and inoculating them into wells of a 96-well cell culture plate. The culture medium is DMEM High Glucose cell culture medium containing 10% fetal bovine serum. The plate is placed in a carbon dioxide cell incubator (5% CO2) at 37° C. for 24 hours. After adding the 2-substituted oleanolic acid derivatives of different concentrations and mixing uniformly, the plate is placed in a carbon dioxide cell incubator (5% CO2) at 37° C. and incubated for 72 hours. Then the relative number of the living cells is determined by MTT method. In this experiment, the cell proliferation inhibition rate in control group (not treated with any compound) is set as 0%.

RKO cell line = test: solid tumor cell growth inhibition, MTT; format: cell-based; settings: Homo sapiens, 72 h; for inhibition at 16 µg/mL: 16 μg/mL compound, read-out: IR (cell proliferation inhibition rate)
Method: as §3, §4

CaES-17 cell line = test: solid tumor cell growth inhibition, MTT; format: cell-based; settings: Homo sapiens, CaEs17; for inhibition at 16 µg/mL: CaES-17, 16 μg/mL compound, 72 h, read-out: IR (cell proliferation inhibition rate); for IC50: CaES-17, 72 h
Method: as §3, §4

A549 cell line = test: solid tumor cell growth inhibition, MTT; format: cell-based; settings: Homo sapiens; for IC50: A549, 72 h; for inhibition at 16 µg/mL: A549, 16 μg/mL compound, 72 h, read-out: IR (cell proliferation inhibition rate)
Method: as §3, §4

Becap37 cell line = test: solid tumor cell growth inhibition, MTT; format: cell-based; settings: Homo sapiens; for inhibition at 16 µg/mL: Becap37, 16 μg/mL compound, 72 h, read-out: IR (cell proliferation inhibition rate); for IC50: Becap37, 72 h
Method: as §3, §4

SK-OV-3 cell line = test: solid tumor cell growth inhibition, MTT; format: cell-based; settings: Homo sapiens; for IC50: SK-OV-3, 72 h; for inhibition at 16 µg/mL: SK-OV-3, 16 μg/mL compound, 72 h, read-out: IR (cell proliferation inhibition rate)
Method: as §3, §4

MG-63 cell line = test: solid tumor cell growth inhibition, MTT; format: cell-based; settings: Homo sapiens; for IC50: MG-63, 72 h; for inhibition at 16 µg/mL: MG-63, 16 μg/mL compound, 72 h, read-out: IR (cell proliferation inhibition rate)
Method: as §3, §4

CNE cell line = test: solid tumor cell growth inhibition, MTT; format: cell-based; settings: Homo sapiens, 72 h; for inhibition at 16 µg/mL: 16 μg/mL compound, read-out: IR (cell proliferation inhibition rate)
Method: as §3, §4

Hela cell line = test: solid tumor cell growth inhibition, MTT; format: cell-based; settings: Homo sapiens, 72 h; for IC50: HeLa; for inhibition at 16 µg/mL: Hela, 16 μg/mL compound, read-out: IR (cell proliferation inhibition rate)
Method: as §3, §4

MGC 803 cell line = test: solid tumor cell growth inhibition, MTT; format: cell-based; settings: Homo sapiens; for inhibition at 16 µg/mL: MGC 803, 16 μg/mL compound, 72 h, read-out: IR (cell proliferation inhibition rate); for IC50: MGC 803, 72 h
Method: as §3, §4

PC-3 cell line = test: solid tumor cell growth inhibition, MTT; format: cell-based; settings: Homo sapiens; for IC50: PC-3, 72 h; for inhibition at 16 µg/mL: PC-3, 16 μg/mL compound, 72 h, read-out: IR (cell proliferation inhibition rate)
Method: as §3, §4

Hep-2 cell line = test: solid tumor cell growth inhibition, MTT; format: cell-based; settings: Homo sapiens; for IC50: HEp-2, 72 h; for inhibition at 16 µg/mL: Hep-2, 16 μg/mL compound, 72 h, read-out: IR (cell proliferation inhibition rate)
Method: as §3, §4

PANC-1 cell line = test: solid tumor cell growth inhibition, MTT; format: cell-based; settings: Homo sapiens; for IC50: PANC-1, 72 h; for inhibition at 16 µg/mL: PANC-1, 16 μg/mL compound, 72 h, read-out: IR (cell proliferation inhibition rate)
Method: as §3, §4

U87 MG cell line = test: solid tumor cell growth inhibition, MTT; format: cell-based; settings: Homo sapiens, U-87 MG, 72 h; for inhibition at 16 µg/mL: 16 μg/mL compound, read-out: IR (cell proliferation inhibition rate)
Method: as §3, §4

IC50 (NB4 cell line) [µg/mL]	IC50 (Jurkat cell line) [µg/mL]	IC50 (K562/adr cell line) [µg/mL]	IC50 (Kasumi-1 cell line) [µg/mL]	IC50 (H9 cell line) [µg/mL]	IC50 (RPMI8226 cell line) [µg/mL]	IC50 (Hep G2 cell line) [µg/mL]	IC50 (RKO cell line) [µg/mL]	IC50 (CaES-17 cell line) [µg/mL]	IC50 (A549 cell line) [µg/mL]	SMILES	inhibition at 16 µg/mL (NB4 cell line) [%]	inhibition at 16 µg/mL (Jurkat cell line) [%]	inhibition at 16 µg/mL (K562/adr cell line) [%]	inhibition at 16 µg/mL (Kasumi-1 cell line) [%]	inhibition at 16 µg/mL (H9 cell line) [%]	inhibition at 16 µg/mL (RPMI8226 cell line) [%]	inhibition at 16 µg/mL (Hep G2 cell line) [%]	inhibition at 16 µg/mL (RKO cell line) [%]	inhibition at 16 µg/mL (CaES-17 cell line) [%]	inhibition at 16 µg/mL (A549 cell line) [%]	further results
> 16	> 16	8 (≈ 13.7 µM)	> 16	> 16	> 16	> 16	> 16	> 16	> 16	CCC(C)CNC(=O)C1C[C@@]2(C)C(CC[C@]3(C)C2CC=C2C4CC(C)(C)CC[C@]4(C(=O)OC)CC[C@]23C)C(C)(C)C1=O (some centres unmarked) [BS-OA-008]	6.3	-33.8	70.1	6.7	39.8	30	8.1	-18.6	-12.7	3.4	inhibition at 16 µg/mL (Becap37 cell line): 2.3%; IC50 (Becap37 cell line): > 16 µg/mL; IC50 (SK-OV-3 cell line): > 16 µg/mL; inhibition at 16 µg/mL (SK-OV-3 cell line): 14.3%; IC50 (MG-63 cell line): > 16 µg/mL; inhibition at 16 µg/mL (MG-63 cell line): -12.1%; inhibition at 16 µg/mL (CNE cell line): 15.1%; IC50 (CNE cell line): > 16 µg/mL; IC50 (Hela cell line): > 16 µg/mL; inhibition at 16 µg/mL (Hela cell line): 0.5%; inhibition at 16 µg/mL (MGC 803 cell line): -12.4%; IC50 (MGC 803 cell line): > 16 µg/mL; IC50 (PC-3 cell line): > 16 µg/mL; inhibition at 16 µg/mL (PC-3 cell line): 12%; IC50 (Hep-2 cell line): > 16 µg/mL; inhibition at 16 µg/mL (Hep-2 cell line): 3.5%; IC50 (PANC-1 cell line): > 16 µg/mL; inhibition at 16 µg/mL (PANC-1 cell line): -4.6%; inhibition at 16 µg/mL (U87 MG cell line): 30.1%; IC50 (U87 MG cell line): > 16 µg/mL
8.95 (≈ 14 µM)	18.4 (≈ 28.8 µM)	8.79 (≈ 13.8 µM)	> 16	> 16	8.58 (≈ 13.4 µM)	> 16	> 16	> 16	> 16	CN1CCN(CCCNC(=O)C2C[C@]3(C)[C@H]4CC=C5[C@@H]6CC(C)(C)CC[C@]6(C(=O)O)CC[C@@]5(C)[C@]4(C)CC[C@H]3C(C)(C)C2=O)CC1 (some centres unmarked) [BS-OA-110]	78.8	45.5	81.9	41.7	37.9	96.7	29.5	-19.1	-1	4	inhibition at 16 µg/mL (Becap37 cell line): 22.2%; IC50 (Becap37 cell line): > 16 µg/mL; IC50 (SK-OV-3 cell line): > 16 µg/mL; inhibition at 16 µg/mL (SK-OV-3 cell line): -20.1%; IC50 (MG-63 cell line): > 16 µg/mL; inhibition at 16 µg/mL (MG-63 cell line): 29.5%; inhibition at 16 µg/mL (CNE cell line): 30.1%; IC50 (CNE cell line): > 16 µg/mL; IC50 (Hela cell line): > 16 µg/mL; inhibition at 16 µg/mL (Hela cell line): 26.1%; inhibition at 16 µg/mL (MGC 803 cell line): 2.9%; IC50 (MGC 803 cell line): > 16 µg/mL; IC50 (PC-3 cell line): > 16 µg/mL; inhibition at 16 µg/mL (PC-3 cell line): -11.4%; IC50 (Hep-2 cell line): > 16 µg/mL; inhibition at 16 µg/mL (Hep-2 cell line): -6.3%; IC50 (PANC-1 cell line): > 16 µg/mL; inhibition at 16 µg/mL (PANC-1 cell line): 13.1%; inhibition at 16 µg/mL (U87 MG cell line): -12.6%; IC50 (U87 MG cell line): > 16 µg/mL
